From patent publication US7399638B2, “Prediction method for lipidosis” (Takeda Pharmaceutical Company Limited, priority 2003, dated 2008)
Like-named read-outs stand apart in the source and are kept apart here. Marks after values point to notes of the source that are not given here.

Experiments:
Crj: CD(SD)IGS rats [1] = conditions: rat, in vivo
Experimental: (§1) The following 10 kinds of commercially available drugs were examined as the test compounds for a potential of inducing PLsis by histopathological examination and peripheral blood lymphocyte testing.
(§2) The following experiments were performed using the prematurely autopsied animals.
(§3) The high-dose dosing suspension was diluted about 3 fold and 10 fold with dispersant/solvent to prepare intermediate- and low-dose dosing suspensions. […] [For LD50, the Summary Basis of Approval (FDA) for each drug was referenced to.]
(§4) The animals were examined for mortality, general conditions, body weight, food consumption and the like using PM4800 (Mettler) and EB3200D (Shimadzu Corporation).

male cynomolgus monkeys = conditions: cynomolgus monkey, in vivo
Experimental: Amiodarone and perhexiline were purchased from SIGMA Company.
Subsequently, the animals were allocated to four groups (5 animals in total) comprising 2 animals in the control group and 1 male in each treatment group, respectively.
The high-dose dosing suspension was diluted with the dispersant/solvent to prepare a low-dose dosing suspension.
After completion of the administration, livers, kidneys, hearts, spleens, lungs, mesenteric lymph nodes, eyeballs, testes and brains were collected from all animals, and examined for histopathological changes by conventional method of optical microscopy. Additionally, blood samples were collected in the pre-dosing period, on the first day of administration, and on days 2 and 6 of treatment period, blood smear specimens were prepared, and vacuolated lymphocyte ratios were determined.

Crj: CD(SD)IGS rats [2] = test: Urinary PAG/hippuric acid ratio by 1H NMR in rats
Experimental: During the urine pooling, the collecting vessels were kept in an ice-cooled condition. After the urine collection, the urine was centrifuged at 1500×g for 10 minutes, and not less than 1 mL of the supernatant was collected and stored under freezing (below −70° C.) in a microtube in an ultralow-temperature freezer until the measurement. For the negative control group, 24-hour pooled urine was collected under ice cooling; after the urine collection, the urine was stored at −30° C. until the measurement.
Crj: CD(SD)IGS rats [3] = conditions: male, rat, in vivo, 3 days
Experimental: as §1, §2, §3, §4
Hematological examination was performed for parameters such as RBC count, hematocrit, hemoglobin concentration, mean corpuscular hemoglobin (MCH), mean corpuscular hemoglobin concentration (MCHC), mean corpuscular volume (MCV), platelet count, WBC count, reticulocyte count, differential WBC, and vacuolated lymphocyte ratio (for PLsis-inducing compounds only) using ADVIA120 (Bayer Medical Ltd.) and E-4000 (Sysmex Corporation).

[4] = rat 24-hour pooled urine, 30 mg/kg/day by gavage, 4 days, negative control drug, mean n = 2-4
[5] = rat 24-hour pooled urine, 100 mg/kg/day by gavage, 4 days, negative control drug, mean n = 2-4
[6] = rat urine, 25 mg/kg/day by gavage, 3 days, mean n = 3-4
[7] = rat urine, 75 mg/kg/day by gavage, 3 days, mean n = 3-4
[8] = rat urine, 250 mg/kg/day by gavage, 3 days, mean n = 3-4
[9] = rat urine, 30 mg/kg/day by gavage, 3 days, mean n = 3-4
[10] = rat urine, 100 mg/kg/day by gavage, 3 days, mean n = 3-4
[11] = rat urine, 300 mg/kg/day by gavage, 3 days, mean n = 3-4

With `CCCCc1oc2ccccc2c1C(=O)c1cc(I)c(OCCN(CC)CC)c(I)c1` [Amiodarone] the “Histopathological changes (PLsis): Liver” value (Crj: CD(SD)IGS rats [1]; 100 mg/kg/day) was “−”, the “Histopathological changes (PLsis): Lung” value (Crj: CD(SD)IGS rats [1]; 100 mg/kg/day) was “−” and the “Histopathological changes (PLsis): Lymph node” value (Crj: CD(SD)IGS rats [1]; 100 mg/kg/day) was “−”. The “Histopathological changes (PLsis): Others” value (Crj: CD(SD)IGS rats [1]; 100 mg/kg/day) was “−”, the “Histopathological changes (PLsis): Spleen” value (Crj: CD(SD)IGS rats [1]; 100 mg/kg/day) was “−” and the “Histopathological changes (PLsis): Liver” value (Crj: CD(SD)IGS rats [1]; 300 mg/kg/day) was “−”. For the same compound, the “Histopathological changes (PLsis): Lung” value (Crj: CD(SD)IGS rats [1]; 300 mg/kg/day) was “+”, the “Histopathological changes (PLsis): Lymph node” value (Crj: CD(SD)IGS rats [1]; 300 mg/kg/day) was “+” and the “Histopathological changes (PLsis): Others” value (Crj: CD(SD)IGS rats [1]; 300 mg/kg/day) was “−”. For the same compound, the “Histopathological changes (PLsis): Spleen” value (Crj: CD(SD)IGS rats [1]; 300 mg/kg/day) was “−”, the “Histopathological changes (PLsis): Liver” value (Crj: CD(SD)IGS rats [1]; 1000 mg/kg/day) was “−” and the “Histopathological changes (PLsis): Lung” value (Crj: CD(SD)IGS rats [1]; 1000 mg/kg/day) was “+”. For the same compound, the “Histopathological changes (PLsis): Lymph node” value (Crj: CD(SD)IGS rats [1]; 1000 mg/kg/day) was “+”, the “Histopathological changes (PLsis): Others” value (Crj: CD(SD)IGS rats [1]; 1000 mg/kg/day) was “−” and the “Histopathological changes (PLsis): Spleen” value (Crj: CD(SD)IGS rats [1]; 1000 mg/kg/day) was “+”. For the same compound, the “induction of PLsis/steatosis” value (male cynomolgus monkeys; 60 mg/kg) was “not observed” and the “histopathological changes in any target organ” value (male cynomolgus monkeys; 300 mg/kg) was “observed”.
For `COc1ccc([C@]2(C#N)CC[C@@H](C(=O)O)CC2)cc1OC1CCCC1` [Ariflo], the “Histopathological changes (PLsis): Liver” value (Crj: CD(SD)IGS rats [1]; 30 mg/kg/day) was “−”, the “Histopathological changes (PLsis): Lung” value (Crj: CD(SD)IGS rats [1]; 30 mg/kg/day) was “−” and the “Histopathological changes (PLsis): Lymph node” value (Crj: CD(SD)IGS rats [1]; 30 mg/kg/day) was “−”. For the same compound, the “Histopathological changes (PLsis): Others” value (Crj: CD(SD)IGS rats [1]; 30 mg/kg/day) was “−”, the “Histopathological changes (PLsis): Spleen” value (Crj: CD(SD)IGS rats [1]; 30 mg/kg/day) was “−” and the “Histopathological changes (PLsis): Liver” value (Crj: CD(SD)IGS rats [1]; 100 mg/kg/day) was “−”. The “Histopathological changes (PLsis): Lung” value (Crj: CD(SD)IGS rats [1]; 100 mg/kg/day) was “−”, the “Histopathological changes (PLsis): Lymph node” value (Crj: CD(SD)IGS rats [1]; 100 mg/kg/day) was “−” and the “Histopathological changes (PLsis): Others” value (Crj: CD(SD)IGS rats [1]; 100 mg/kg/day) was “−”. The “Histopathological changes (PLsis): Spleen” value (Crj: CD(SD)IGS rats [1]; 100 mg/kg/day) was “−”, the “PAG + hippuric acid/creatinine” value (Crj: CD(SD)IGS rats [2]; [4]) was 1.34 and the “PAG/PAG + hippuric acid” value (Crj: CD(SD)IGS rats [2]; [4]) was 9.70%. For the same compound, the “PAG/creatinine (first term of PAG + hippuric acid)” value (from here on “PAG/creatinine”) (Crj: CD(SD)IGS rats [2]; [4]) was 0.13, the PAG/hippuric acid (Crj: CD(SD)IGS rats [2]; [4]) was 12.16% and the “PAG + hippuric acid/creatinine” value (Crj: CD(SD)IGS rats [2]; [5]) was 1.14. For the same compound, the “PAG/PAG + hippuric acid” value (Crj: CD(SD)IGS rats [2]; [5]) was 14.04%, the “PAG/creatinine” value (Crj: CD(SD)IGS rats [2]; [5]) was 0.16 and the PAG/hippuric acid (Crj: CD(SD)IGS rats [2]; [5]) was 13.91%. The “hippuric acid/creatinine (second term of PAG + hippuric acid)” value (Crj: CD(SD)IGS rats [2]; [5]) was 0.98.
In the case of `CCN(CC)CCCC(C)Nc1ccnc2cc(Cl)ccc12` (stereo not shown) [Chloroquine, chloroquine], the “PAG + hippuric acid/creatinine” value (Crj: CD(SD)IGS rats [2]; [6]) was 1.34, the “PAG/PAG + hippuric acid” value (Crj: CD(SD)IGS rats [2]; [6]) was 13.25% and the “PAG/creatinine” value (Crj: CD(SD)IGS rats [2]; [6]) was 0.18. The PAG/hippuric acid (Crj: CD(SD)IGS rats [2]; [6]) was 15.42%, the “PAG + hippuric acid/creatinine” value (Crj: CD(SD)IGS rats [2]; [7]) was 1.23 and the “PAG/creatinine” value (Crj: CD(SD)IGS rats [2]; [7]) was 0.24. The “hippuric acid/creatinine (second term of PAG + hippuric acid)” value (Crj: CD(SD)IGS rats [2]; [7]) was 1.00, the “PAG + hippuric acid/creatinine” value (Crj: CD(SD)IGS rats [2]; [8]) was 1.29 and the “PAG/creatinine” value (Crj: CD(SD)IGS rats [2]; [8]) was 0.52. The “hippuric acid/creatinine (second term of PAG + hippuric acid)” value (Crj: CD(SD)IGS rats [2]; [8]) was 0.76.
For `CNCCC(Oc1ccc(C(F)(F)F)cc1)c1ccccc1` (stereo not shown) [Fluoxetine, fluoxetine], the “Mean vacuolated lymphocyte ratio” value (Crj: CD(SD)IGS rats [3]; 30 mg/kg/day) was 7%, the “Mean vacuolated lymphocyte ratio” value (Crj: CD(SD)IGS rats [3]; 100 mg/kg/day) was 28% and the “Mean vacuolated lymphocyte ratio” value (Crj: CD(SD)IGS rats [3]; 300 mg/kg/day) was 31%. For the same compound, the “Histopathological changes (PLsis): Liver” value (Crj: CD(SD)IGS rats [1]; 30 mg/kg/day) was “+”, the “Histopathological changes (PLsis): Lung” value (Crj: CD(SD)IGS rats [1]; 30 mg/kg/day) was “+” and the “Histopathological changes (PLsis): Lymph node” value (Crj: CD(SD)IGS rats [1]; 30 mg/kg/day) was “+”. The “Histopathological changes (PLsis): Others” value (Crj: CD(SD)IGS rats [1]; 30 mg/kg/day) was “Brain”, the “Histopathological changes (PLsis): Spleen” value (Crj: CD(SD)IGS rats [1]; 30 mg/kg/day) was “−” and the “Histopathological changes (PLsis): Liver” value (Crj: CD(SD)IGS rats [1]; 100 mg/kg/day) was “+”. For the same compound, the “Histopathological changes (PLsis): Lung” value (Crj: CD(SD)IGS rats [1]; 100 mg/kg/day) was “+”, the “Histopathological changes (PLsis): Lymph node” value (Crj: CD(SD)IGS rats [1]; 100 mg/kg/day) was “+” and the “Histopathological changes (PLsis): Others” value (Crj: CD(SD)IGS rats [1]; 100 mg/kg/day) was “Brain”. The “Histopathological changes (PLsis): Spleen” value (Crj: CD(SD)IGS rats [1]; 100 mg/kg/day) was “−”, the “Histopathological changes (PLsis): Liver” value (Crj: CD(SD)IGS rats [1]; 300 mg/kg/day) was “+” and the “Histopathological changes (PLsis): Lung” value (Crj: CD(SD)IGS rats [1]; 300 mg/kg/day) was “+”. The “Histopathological changes (PLsis): Lymph node” value (Crj: CD(SD)IGS rats [1]; 300 mg/kg/day) was “−”, the “Histopathological changes (PLsis): Others” value (Crj: CD(SD)IGS rats [1]; 300 mg/kg/day) was “−” and the “Histopathological changes (PLsis): Spleen” value (Crj: CD(SD)IGS rats [1]; 300 mg/kg/day) was “−”. The “PAG + hippuric acid/creatinine” value (Crj: CD(SD)IGS rats [2]; [9]) was 1.13, the “PAG/PAG + hippuric acid” value (Crj: CD(SD)IGS rats [2]; [9]) was 15.60* % and the “PAG/creatinine” value (Crj: CD(SD)IGS rats [2]; [9]) was 0.17. For the same compound, the PAG/hippuric acid (Crj: CD(SD)IGS rats [2]; [9]) was 18.58* %, the “hippuric acid/creatinine (second term of PAG + hippuric acid)” value (Crj: CD(SD)IGS rats [2]; [9]) was 0.96 and the “PAG + hippuric acid/creatinine” value (Crj: CD(SD)IGS rats [2]; [10]) was 1.06. The “PAG/PAG + hippuric acid” value (Crj: CD(SD)IGS rats [2]; [10]) was 25.90* %, the “PAG/creatinine” value (Crj: CD(SD)IGS rats [2]; [10]) was 0.27 and the PAG/hippuric acid (Crj: CD(SD)IGS rats [2]; [10]) was 36.86* %. The “hippuric acid/creatinine (second term of PAG + hippuric acid)” value (Crj: CD(SD)IGS rats [2]; [10]) was 0.79, the “PAG + hippuric acid/creatinine” value (Crj: CD(SD)IGS rats [2]; [11]) was 0.67* and the “PAG/PAG + hippuric acid” value (Crj: CD(SD)IGS rats [2]; [11]) was 31.88* %. For the same compound, the “PAG/creatinine” value (Crj: CD(SD)IGS rats [2]; [11]) was 0.20, the PAG/hippuric acid (Crj: CD(SD)IGS rats [2]; [11]) was 56.32* % and the “hippuric acid/creatinine (second term of PAG + hippuric acid)” value (Crj: CD(SD)IGS rats [2]; [11]) was 0.47.
